The text below walks through data of patent publication US20260294846A1, “COMPOSITIONS AND METHODS FOR TREATING VULVAR AND VAGINAL ATROPHY (VVA)” (Daré Bioscience, Inc., priority 2023, published 2026).

The conditions of series [1]: more potent than tamoxifen; cited from earlier work.
The subject of a further series is vagina. Briefly: Vaginal pH. It is filed as in vivo, human (women). The source says:
Estrogenic effect measurements will include vaginal cytology (maturation index; percentage of basal and superficial cells) and vaginal pH at screening and baseline, every 2 weeks during treatment, and 1 week after treatment.
Vaginal swabs for determination of pH will be collected in accordance with the schedule of events (Table 4). The pH of vaginal secretions will be measured using pH paper.
Local estrogenic effect measurements included obtaining vaginal epithelial cells from the lateral vaginal sidewall and determining the VMI. The VMI is determined by categorizing the ratio (proportion in 100 cells) of the three types of vaginal epithelial cell types (parabasal, intermediate and superficial). A total VMI score was calculated as: % superficial cells+(0.5 x% intermediate cells)+(0 x % parabasal cells). The VMI and vaginal pH were measured at screening and baseline, and subsequently every 2 weeks during treatment and 1 week after treatment.

Series [2] in a line: Systemic plasma pharmacokinetics of tamoxifen and metabolites after intravaginal DARE-VVA1. The settings on record: human, in vivo, 20 mg. Details: species or system human (women). The source says: In each treatment group, participants will have serial blood sampling for PK analysis, with venous samples drawn from an indwelling line. Dense sampling will be performed following the Day 1 and Day 56 administrations of a tamoxifen vaginal insert; trough samples will be collected prior to dosing on Days 4, 7, 10, 18, 28, and 42, and a final sample will be collected at follow-up on Day 63. Samples will be analyzed using validated methods to determine plasma concentrations of tamoxifen and 3 metabolites: 4-hydroxytamoxifen, N-desmethyl-tamoxifen, and N-desmethyl-4-hydroxytamoxifen (endoxifen). […]
Samples will be analyzed using validated methods to determine plasma concentrations of tamoxifen and 3 metabolites: 4-hydroxytamoxifen, N-desmethyltamoxifen, and N-desmethyl-4-hydroxytamoxifen (endoxifen).
The PK characterization of tamoxifen concentrations for each dose to be profiled will use noncompartmental analysis (NCA). […] Standard PK parameters assessed will include measures of the extent of absorption using estimates of the area under the plasma concentration-time curve (AUC), the maximum observed drug concentration (Cmax), and the time to reach maximum drug concentration (Tmax). […]

For series [3] the following is noted: cited from earlier work.
Another series relates to endometrium. The settings on record: cited from earlier work.
The subject of series [4] is female New Zealand White rabbits (vagina, uterus, ovary). Briefly: Study 858-0032-TX: 26/39-week intravaginal toxicity of tamoxifen in rabbits. It is filed as in vivo, rabbit (New Zealand White). The source says: (§1) Tamoxifen is a selective estrogen receptor modulator (SERM) which has species and tissue specific estrogen agonist and antagonist properties. Given orally in women, tamoxifen has estrogen antagonist activity in breast tissue and estrogen agonist effects in the endometrium and vagina. When administered vaginally in women, there is reduced systemic exposure leading to reduced systemic side effects. The objective of this pre-clinical study was to test the safety, pharmacokinetics (PK) and toxicity of vaginal tamoxifen over a 3 and 9 month treatment period in female New Zealand White rabbits.
(§2) All animal studies were conducted under IACUC approvals. In study 3015-012, at Charles River Labs (Mattawan, MI, USA), 45 female rabbits were randomly assigned to either sham (saline), placebo, or 5, 10 or 20 mg/kg/dose of vaginal tamoxifen. Investigational product (IP) was administered intravaginally once daily for 14 days, then twice weekly for up to 10 weeks with necropsy at 12-weeks. In study 858-0032-TX, conducted at WuXi AppTec (Suzhou, Jiangsu, China), 40 female rabbits were randomly assigned to sham (saline), placebo, or 10 or 30 mg/kg/dose of vaginal tamoxifen. IP was administered daily for 14 days and then twice weekly. An interim necropsy was performed at 26-weeks and then at 39-weeks.

Series [5] shares this test system. Briefly: Study 3015-012: 12-week intravaginal toxicity of tamoxifen in rabbits. The class given is in vivo, rabbit (New Zealand White).
Text: as §1, §2

Where [6] appears, read: postmenopausal women, daily oral tamoxifen at least 4 years.
Where [7] appears, read: 20 mg/kg/day, 12 weeks, cranial and mid vagina.
Setting [8] is: 20 mg/kg/day, 12 weeks, intravaginal.

“Also recorded” adds a separate entry of the source.

As for 4-hydroxytamoxifen [4-OHT], the “Potency relative to tamoxifen” value in series [1] was “approximately 100 ×”.
As for `CC/C(=C(\c1ccc(O)cc1)c1ccc(OCCNC)cc1)c1ccccc1` [endoxifen, N-desmethyl-4-hydroxytamoxifen], the “Potency relative to tamoxifen” value in series [1] is “approximately 100 ×”.
Regarding `CC/C(=C(\c1ccccc1)c1ccc(OCCN(C)C)cc1)c1ccccc1` [tamoxifen, 1-(p-dimethylamino-ethoxphenyl)-2-ethyl-1,2-diphenylethylene], the “Improvement in vaginal pH” value in the series on vagina (10 mg and 20 mg, 8-week treatment) is given as “most improvement in vaginal pH”. For the same molecule, the “Change in vaginal pH, baseline to end of treatment” value in the series on vagina (all active doses combined, Day 56) is “statistically significant decreases in vaginal pH”. For the same molecule, the “Median end of treatment vaginal pH levels, range” value with vagina (end of treatment) was 5.0-5.3. Moreover, in series [2] (Day 10, read-out: Single maximum plasma tamoxifen concentration), the Cmax at 240 h turned out to be 12 ng/mL. For the same molecule, in series [2] (Day 10 trough, read-out: Plasma tamoxifen, median), the concentration at 240 h worked out at 8.29 ng/mL. The “Steady-state plasma concentration of NDT, range” value in series [3] (3 months oral daily 20 mg tamoxifen) was 152 to 706 ng/mL. Moreover, in series [3] (oral 20 mg dose), the “Mean steady-state concentration of tamoxifen” value was 122 ng/mL and the “Steady-state concentration of tamoxifen, range” value was 71-183. Further, the “Peak plasma concentration of NDT, range” value in series [3] (oral tamoxifen) is 10 to 20 ng/mL. Also, in series [3] (single oral dose 20 mg), the “Maximum plasma concentration of tamoxifen, range” value is 35 to 45 ng/mL and the “Mean maximum plasma concentration of tamoxifen” value is 40 ng/mL. In the series with endometrium (setting [6]), the “Endometrial risk relative to general postmenopausal population” value is given as “about two to three times that of the general postmenopausal population”, the “Risk of complex hyperplasia” value was 3%, the “Risk of endometrial carcinoma” value is recorded as 2% and the “Risk of simple hyperplasia” value is listed as “approximately 12%”. For the same molecule, in the series with endometrium (premenopausal women, oral tamoxifen), the “Risk of endometrial hyperplasia” value is “no different than in the general premenopausal population”. For the same molecule, in series [4] (30 mg dose, 39 weeks), the Adverse effects result is given as “no observed adverse effects”. In series [4] (30 mg/day, 26 weeks), the “Females affected by uterine atrophy” value is listed as “Four of five”. Besides, in series [4] (30 mg/kg/day, 26 weeks), the Ovary microscopy entry is “moderate to marked atrophy of the interstitial cells in the ovary”; the “Uterine and ovarian weights” value was “Product-related uterine and ovarian weight decreases”; the Uterus microscopy entry is “mild to moderate uterine atrophy”. The Macroscopic changes entry in series [4] (26 weeks, any treatment group) was “no IP related macroscopic changes”. Moreover, in series [4] (two studies, up to 39 weeks), the “Systemic toxicity clinical findings” value is recorded as “no observed clinical findings which would be suspicious for systemic toxicity” and the “Uterine or endometrial hyperplasia” value is on record as “no evidence of uterine or endometrial hyperplasia”. The “Local genital tract findings” value in series [4] (vagina, uterus, ovary, up to 39 weeks) was “mostly organ atrophy”. In addition, in series [5] (20 mg dose, 12 weeks), the Adverse effects result is recorded as “no observed adverse effects”. Moreover, in series [5] (setting [7]), the “Vagina microscopy, atrophy” value is given as “minimal to mild diffuse atrophy; also recorded: diffuse vaginal atrophy” and the “Vagina microscopy, inflammatory cell infiltration” value is given as “increased incidence and/or severity of minimal to mild mixed inflammatory cell infiltration; also recorded: increased incidence of vaginal mixed inflammatory cell infiltrates”. For the same molecule, in series [5] (setting [8]), the Ovary microscopy result was “atrophy of interstitial glands; also recorded: increased incidence of ovarian interstitial gland atrophy with decreased weights”; the Paired ovary weights result is “decreases in the mean weights (absolute and relative to terminal body weight)”; the Uterus/cervix weights entry is “decreases in the mean weights (absolute and relative to terminal body weight); also recorded: decreased uterine weights”. The “Vaginal epithelial degeneration, erosion, ulceration” value in series [5] (12-week necropsy) is reported as “no evidence of epithelial degeneration, erosion, or ulceration”. Besides, the Other parameters entry in series [5] (12 weeks) is on record as “no observed tamoxifen-related adverse effects on any of the other parameters”.
As for `CC/C(=C(\c1ccccc1)c1ccc(OCCNC)cc1)c1ccccc1` [NDT, N-desmethyltamoxifen], the “Systemic potency relative to tamoxifen” value in series [1] is reported as “approximately 1.7 ×”.
